Experimental data published in ChEMBL document CHEMBL2385071, “Synthesis and biological investigation of coumarin piperazine (piperidine) derivatives as potential multireceptor atypical antipsychotics” (J Med Chem, 2013).

Assays:
[1] = target: 5-hydroxytryptamine receptor 2A (Rattus norvegicus, UniProt P14842); test: Displacement of [3H]ketanserin from 5HT2A receptor in rat cerebral cortex after 15 mins by liquid scintillation counting analysis; assay type: tissue-based
D(2) dopamine receptor [2] = target: D(2) dopamine receptor (Rattus norvegicus, UniProt P61169)
D(2) dopamine receptor (Rattus norvegicus, UniProt P61169), sequence (P61169 whole entry): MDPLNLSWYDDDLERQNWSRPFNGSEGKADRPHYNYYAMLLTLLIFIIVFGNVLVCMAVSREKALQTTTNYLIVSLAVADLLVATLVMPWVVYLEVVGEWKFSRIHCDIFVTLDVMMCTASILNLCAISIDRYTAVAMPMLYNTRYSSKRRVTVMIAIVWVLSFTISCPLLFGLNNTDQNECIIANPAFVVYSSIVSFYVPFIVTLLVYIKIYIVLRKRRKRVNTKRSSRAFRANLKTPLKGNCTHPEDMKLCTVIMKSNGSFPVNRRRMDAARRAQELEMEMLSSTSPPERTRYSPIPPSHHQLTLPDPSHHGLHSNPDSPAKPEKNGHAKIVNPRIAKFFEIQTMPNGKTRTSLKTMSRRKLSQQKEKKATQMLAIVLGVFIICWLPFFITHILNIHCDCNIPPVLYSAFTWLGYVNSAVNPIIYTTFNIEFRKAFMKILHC

[3] = target: T1, 5-hydroxytryptamine receptor 1A (Rattus norvegicus, UniProt P19327); test: biochemical
T1 sequence (P19327 whole entry): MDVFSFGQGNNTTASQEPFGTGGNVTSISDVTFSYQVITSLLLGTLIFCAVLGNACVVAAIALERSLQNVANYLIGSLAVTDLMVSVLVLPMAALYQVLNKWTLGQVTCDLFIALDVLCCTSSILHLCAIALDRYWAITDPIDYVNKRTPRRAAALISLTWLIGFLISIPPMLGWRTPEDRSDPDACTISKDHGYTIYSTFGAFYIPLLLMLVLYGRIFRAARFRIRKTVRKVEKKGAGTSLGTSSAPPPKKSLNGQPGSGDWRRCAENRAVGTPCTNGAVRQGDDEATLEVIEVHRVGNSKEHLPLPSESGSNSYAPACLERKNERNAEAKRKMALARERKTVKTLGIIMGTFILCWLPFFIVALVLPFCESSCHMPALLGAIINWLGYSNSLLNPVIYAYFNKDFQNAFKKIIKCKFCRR
Description: Displacement of [3H]8-OH-DPAT from 5HT1A receptor in rat cerebral cortex after 30 mins by liquid scintillation counting analysis

D(3) dopamine receptor = D(3) dopamine receptor (Homo sapiens, UniProt P35462); test: Binding affinity to dopamine D3 receptor (unknown origin)
D(3) dopamine receptor, sequence (P35462 whole entry): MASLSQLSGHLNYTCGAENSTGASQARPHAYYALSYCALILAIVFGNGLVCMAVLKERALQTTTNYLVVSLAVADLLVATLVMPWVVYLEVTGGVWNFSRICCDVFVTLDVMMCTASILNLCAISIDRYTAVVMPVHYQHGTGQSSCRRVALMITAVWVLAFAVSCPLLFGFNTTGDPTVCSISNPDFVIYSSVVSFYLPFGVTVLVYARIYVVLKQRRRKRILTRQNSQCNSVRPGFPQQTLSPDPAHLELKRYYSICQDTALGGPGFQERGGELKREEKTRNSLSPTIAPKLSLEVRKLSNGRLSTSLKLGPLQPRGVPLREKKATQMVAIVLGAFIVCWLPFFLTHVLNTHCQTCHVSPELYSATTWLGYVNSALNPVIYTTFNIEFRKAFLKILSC

[4] = target: T2, 5-hydroxytryptamine receptor 1A (Homo sapiens, UniProt P08908); test: Binding affinity to 5HT1A receptor (unknown origin)
T2 sequence (P08908 whole entry): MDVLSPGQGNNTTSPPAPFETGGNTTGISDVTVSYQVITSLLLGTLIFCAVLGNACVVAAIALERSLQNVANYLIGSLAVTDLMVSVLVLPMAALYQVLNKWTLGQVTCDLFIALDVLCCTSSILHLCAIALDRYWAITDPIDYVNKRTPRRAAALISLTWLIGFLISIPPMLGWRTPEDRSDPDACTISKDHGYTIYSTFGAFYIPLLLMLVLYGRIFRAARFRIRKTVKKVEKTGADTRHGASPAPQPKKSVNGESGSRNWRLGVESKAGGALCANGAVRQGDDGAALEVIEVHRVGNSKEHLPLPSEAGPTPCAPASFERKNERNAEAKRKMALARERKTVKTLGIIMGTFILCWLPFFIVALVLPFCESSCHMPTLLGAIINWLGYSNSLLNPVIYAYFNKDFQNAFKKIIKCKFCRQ

D(2) dopamine receptor [5] = target: T3, D(2) dopamine receptor (Homo sapiens, UniProt P14416)
T3 sequence (P14416 whole entry): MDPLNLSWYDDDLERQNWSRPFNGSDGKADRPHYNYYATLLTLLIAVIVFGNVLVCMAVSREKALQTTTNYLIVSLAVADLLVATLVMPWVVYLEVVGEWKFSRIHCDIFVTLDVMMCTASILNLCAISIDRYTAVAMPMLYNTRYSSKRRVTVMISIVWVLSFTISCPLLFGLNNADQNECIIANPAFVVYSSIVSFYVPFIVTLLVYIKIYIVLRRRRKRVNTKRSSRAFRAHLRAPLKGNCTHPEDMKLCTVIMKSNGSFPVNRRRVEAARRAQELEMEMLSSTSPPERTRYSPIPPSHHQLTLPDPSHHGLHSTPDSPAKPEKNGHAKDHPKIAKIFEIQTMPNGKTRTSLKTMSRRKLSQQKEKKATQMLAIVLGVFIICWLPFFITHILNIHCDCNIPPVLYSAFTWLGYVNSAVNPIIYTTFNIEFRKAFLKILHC

D(2) dopamine receptor [6] = target: T3, D(2) dopamine receptor; test: Antagonist activity at dopamine D2 receptor (unknown origin) expressed in CHOK1 cells coexpressing Galpha15 assessed as inhibition of agonist-induced response at 10 uM incubated for 60 mins in incubator followed by 15 mins at room temperature by FLIPR assay relative to control; assay type: cell-based; conditions: CHO-K1
D(2) dopamine receptor [7] = target: T3, D(2) dopamine receptor; remark: listed apart in the source
Mus musculus [8] = test: Toxicity in po dosed mouse assessed as induction of catalepsy; assay type: organism-based; conditions: in vivo
in vivo [9] = conditions: mouse, po
in vivo [10] = conditions: mouse, po; remark: listed apart in the source
Description: Therapeutic Index, ratio of ED50 for catalepsy in mouse to ED50 for antipsychotic activity in po dosed mouse assessed as reduction in apomorphine-induced climbing behavior

Mus musculus [11] = species: Mus musculus; test: animal or person; conditions: po
Mus musculus [12] = species: Mus musculus; test: animal or person; conditions: po; remark: listed apart in the source
Description: Antipsychotic activity in po dosed mouse assessed as reduction in apomorphine-induced climbing behavior administered for 30 mins prior to apomorphine-challenge measured at 10 to 30 mins post-dose

D(2) dopamine receptor [13] = target: T3, D(2) dopamine receptor; test: Agonist activity at dopamine D2 receptor (unknown origin) expressed in CHOK1 cells coexpressing Galpha15 at 10 uM by FLIPR assay relative to control; assay type: cell-based; conditions: CHO-K1
[14] = target: T4, 5-hydroxytryptamine receptor 2A (Homo sapiens, UniProt P28223); test: Antagonist activity at 5HT2A receptor (unknown origin) expressed in CHOK1 cells coexpressing Galpha15 assessed as inhibition of agonist-induced response at 10 uM incubated for 60 mins in incubator followed by 15 mins at room temperature by FLIPR assay relative to control; assay type: cell-based; conditions: CHO-K1
T4 sequence (P28223 whole entry): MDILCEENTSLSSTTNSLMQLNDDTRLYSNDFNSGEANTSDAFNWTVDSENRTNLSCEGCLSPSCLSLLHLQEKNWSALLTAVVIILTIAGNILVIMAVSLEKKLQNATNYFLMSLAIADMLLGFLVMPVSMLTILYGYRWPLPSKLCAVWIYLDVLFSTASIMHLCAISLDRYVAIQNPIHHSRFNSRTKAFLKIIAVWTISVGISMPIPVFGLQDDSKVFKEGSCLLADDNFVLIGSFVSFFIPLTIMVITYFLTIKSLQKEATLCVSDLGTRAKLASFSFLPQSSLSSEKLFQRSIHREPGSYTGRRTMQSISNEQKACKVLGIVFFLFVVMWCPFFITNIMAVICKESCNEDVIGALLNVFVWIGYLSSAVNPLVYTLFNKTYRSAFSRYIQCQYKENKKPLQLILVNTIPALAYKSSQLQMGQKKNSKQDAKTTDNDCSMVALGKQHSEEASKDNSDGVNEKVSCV

[15] = target: T5, Alpha-1A adrenergic receptor (Homo sapiens, UniProt P35348); test: Binding affinity to alpha-1A adrenergic receptor (unknown origin); conditions: read-out: pA2 (converted)
T5 sequence (P35348 whole entry): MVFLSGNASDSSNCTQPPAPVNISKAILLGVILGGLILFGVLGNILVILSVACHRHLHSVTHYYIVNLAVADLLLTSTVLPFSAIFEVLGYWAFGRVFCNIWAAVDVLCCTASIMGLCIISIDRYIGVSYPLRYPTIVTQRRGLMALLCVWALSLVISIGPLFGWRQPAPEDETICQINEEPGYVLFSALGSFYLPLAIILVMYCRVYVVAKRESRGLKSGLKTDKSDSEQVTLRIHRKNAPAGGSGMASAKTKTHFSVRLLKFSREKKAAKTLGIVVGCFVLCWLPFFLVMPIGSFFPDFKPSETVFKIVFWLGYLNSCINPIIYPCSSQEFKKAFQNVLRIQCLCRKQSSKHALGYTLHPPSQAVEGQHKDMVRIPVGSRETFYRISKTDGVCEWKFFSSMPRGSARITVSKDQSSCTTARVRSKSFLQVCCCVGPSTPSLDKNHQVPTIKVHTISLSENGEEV

[16] = target: T4, 5-hydroxytryptamine receptor 2A; test: Binding affinity to 5HT2A receptor (unknown origin)
[17] = target: T4, 5-hydroxytryptamine receptor 2A; test: Agonist activity at 5HT2A receptor (unknown origin) expressed in CHOK1 cells coexpressing Galpha15 at 10 uM by FLIPR assay relative to control; assay type: cell-based; conditions: CHO-K1

5-hydroxytryptamine receptor 2A (Rattus norvegicus, UniProt P14842), sequence (P14842 whole entry): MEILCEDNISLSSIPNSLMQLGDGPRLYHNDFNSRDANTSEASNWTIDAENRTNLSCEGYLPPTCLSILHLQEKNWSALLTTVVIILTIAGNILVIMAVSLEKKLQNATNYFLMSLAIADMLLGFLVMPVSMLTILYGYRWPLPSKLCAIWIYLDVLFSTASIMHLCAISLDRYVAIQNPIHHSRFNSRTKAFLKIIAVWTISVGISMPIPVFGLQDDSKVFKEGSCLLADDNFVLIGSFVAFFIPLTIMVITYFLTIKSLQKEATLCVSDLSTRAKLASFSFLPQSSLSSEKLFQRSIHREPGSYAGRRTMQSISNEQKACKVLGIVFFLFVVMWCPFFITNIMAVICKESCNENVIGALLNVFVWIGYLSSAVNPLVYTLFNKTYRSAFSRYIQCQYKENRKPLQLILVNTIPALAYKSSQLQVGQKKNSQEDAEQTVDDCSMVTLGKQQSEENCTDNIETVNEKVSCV

SMILES	Ki [1]	Ki (D(2) dopamine receptor [2])	Ki [3]	other results
Cc1cc(=O)oc2cc(OC/C=C/CN3CCC(c4noc5cc(F)ccc45)CC3)ccc12	0.5 nM	17.1 nM	44.5 nM	
Cc1ccc(S(=O)(=O)N2CCN(CCCCOc3ccc4c(C)cc(=O)oc4c3)CC2)cc1	> 10000 nM	1590 nM	1200 nM	
Cc1cc(=O)oc2cc(OCCCN3CCN(c4ccccc4)CC3)ccc12				Ki (D(3) dopamine receptor): 18.9 nM; Ki [4]: 0.79 nM; Ki (D(2) dopamine receptor [5]): 10.8 nM
Cc1cc(=O)oc2cc(OCCCCN3CCN(c4cccc(C(F)(F)F)c4)CC3)ccc12	157 nM	143 nM	15.6 nM	
Cc1c(C)c2ccc(OCCCCN3CCC(c4noc5cc(F)ccc45)CC3)c(C)c2oc1=O	607 nM	10.7 nM	3070 nM	
Cc1cc(=O)oc2cc(OCCCCN3CCC(c4noc5cc(F)ccc45)CC3)c(Cl)cc12	10.6 nM	> 10000 nM	17.2 nM	
O=c1cc(CO)c2ccc(OCCCCN3CCC(c4noc5cc(F)ccc45)CC3)cc2o1	> 10000 nM	> 10000 nM	2160 nM	
COc1ccccc1N1CCN(CCCCOc2ccc3ccc(=O)oc3c2)CC1	1680 nM	569 nM	876 nM	
OCCN1CCN(CCCN2c3ccccc3Sc3ccc(Cl)cc32)CC1 [PERPHENAZINE]				inhibition (D(2) dopamine receptor [6]): 100%; IC50 (D(2) dopamine receptor [7]): 0.3 nM
COc1ccccc1N1CCN(CCCCOc2ccc3c(-c4ccccc4)cc(=O)oc3c2)CC1	> 10000 nM	> 10000 nM	> 10000 nM	
Cc1cc(=O)oc2cc(OCCCCN3CCC(C(=O)c4ccc(F)cc4)CC3)ccc12	257 nM	182 nM	165 nM	
O=C(CCCN1CCC(O)(c2ccc(Cl)cc2)CC1)c1ccc(F)cc1 [HALOPERIDOL]				ED50 (Mus musculus [8]): 0.22 mg/kg; selectivity ratio (in vivo [9]): 1.16; selectivity ratio (in vivo [10]): 2.44; ED50 (Mus musculus [11]): 0.19 mg/kg; ED50 (Mus musculus [12]): 0.09 mg/kg
NCCc1ccc(O)c(O)c1				Activity (D(2) dopamine receptor [13]): 101%
Cc1cc(=O)oc2cc(OCCCCN3CCC(c4nc5ccccc5s4)CC3)ccc12	215 nM	242 nM	146 nM	
COc1ccc(N2CCN(CCCCOc3ccc4c(C)cc(=O)oc4c3)CC2)cc1	1010 nM	412 nM	530 nM	
Cc1cccc(N2CCN(CCCCOc3ccc4c(C)cc(=O)oc4c3)CC2)c1C	259 nM	1390 nM	48.4 nM	
O=c1cc(-c2ccc(F)cc2)c2ccc(OCCCCN3CCC(c4noc5cc(F)ccc45)CC3)cc2o1	> 10000 nM	632 nM	> 10000 nM	
Cc1cc(=O)oc2cc(OCC(O)CN3CCC(c4noc5cc(F)ccc45)CC3)ccc12 (stereo not drawn)	453 nM	> 10000 nM	517 nM	
Cc1cc(OCCCCN2CCC(c3noc4cc(F)ccc34)CC2)cc2oc(=O)cc(C)c12	549 nM	459 nM	18.9 nM	
O=c1cc(C(F)(F)F)c2ccc(OCCCCN3CCC(c4noc5cc(F)ccc45)CC3)cc2o1	228 nM	3010 nM	42.9 nM	
COc1ccccc1N1CCN(CCCCOc2ccc3c(CO)cc(=O)oc3c2)CC1	> 10000 nM	> 10000 nM	> 10000 nM	
CC(C)c1cc(=O)oc2cc(OCCCCN3CCC(c4noc5cc(F)ccc45)CC3)ccc12	> 10000 nM	2350 nM	> 10000 nM	
COc1ccccc1N1CCN(CCCCOc2ccc3c(C)c(C)c(=O)oc3c2)CC1	58.9 nM	> 10000 nM	> 10000 nM	

SMILES	Ki [1]	Ki (D(2) dopamine receptor [2])	Ki [3]	other results
O=c1cc(-c2cccs2)c2ccc(OCCCCN3CCC(c4noc5cc(F)ccc45)CC3)cc2o1	> 10000 nM	2350 nM	> 10000 nM	
Cc1cc(=O)oc2cc(OCCCCN3CCN(c4nsc5ccccc45)CC3)ccc12	104 nM	176 nM	113 nM	
COc1ccccc1N1CCN(CCCCOc2ccc3c(C)cc(=O)oc3c2C)CC1	941 nM	844 nM	112 nM	
CN1CCN(C2=Nc3cc(Cl)ccc3Nc3ccccc32)CC1 [CLOZAPINE]				ED50 (Mus musculus [8]): 92.73 mg/kg
O=C(c1ccc(F)cc1)C1CCN(CCn2c(=O)[nH]c3ccccc3c2=O)CC1				inhibition [14]: 99.9%
COc1ccccc1N1CCN(CCCOc2ccc3c(C)cc(=O)oc3c2)CC1				Kb [15]: 0.851 nM; Ki [16]: 174 nM; Ki (D(2) dopamine receptor [5]): 11.7 nM
CCCc1cc(=O)oc2cc(OCCCCN3CCC(c4noc5cc(F)ccc45)CC3)ccc12	30.8 nM	3.9 nM	410 nM	
O=c1ccc2ccc(OCCCCN3CCC(c4noc5cc(F)ccc45)CC3)cc2o1	1460 nM	44.9 nM	553 nM	
Cc1cc(=O)oc2cc(OCCCCN3CCN(c4ccccn4)CC3)ccc12	897 nM	2820 nM	102 nM	
COc1ccccc1N1CCN(CCCCOc2ccc3c(C(F)(F)F)cc(=O)oc3c2)CC1	810 nM	> 10000 nM	41.8 nM	
NCCc1c[nH]c2ccc(O)cc12				Activity [17]: 100%
COc1ccccc1N1CCN(CCCCOc2ccc3c(C)cc(=O)oc3c2Cl)CC1	588 nM	119 nM	151 nM	
COc1cccc(N2CCN(CCCCOc3ccc4c(C)cc(=O)oc4c3)CC2)c1	469 nM	156 nM	89.2 nM	
O=c1cc(-c2ccccc2)c2ccc(OCC(O)CN3CCC(c4noc5cc(F)ccc45)CC3)cc2o1 (stereo not drawn)	1570 nM	987 nM	692 nM	
CCc1cc(=O)oc2cc(OCCCCN3CCC(c4noc5cc(F)ccc45)CC3)ccc12	51.3 nM	1930 nM	1470 nM	
Cc1cc(=O)oc2cc(OCCCCN3CCN(c4cccc(Cl)c4Cl)CC3)ccc12	101 nM	1870 nM	11.5 nM	
Cc1cc(=O)oc2cc(OCCCCN3CCC(c4nc5ccccc5o4)CC3)ccc12	1550 nM	> 10000 nM	1390 nM	
O=c1cc(C2CC2)c2ccc(OCCCCN3CCC(c4noc5cc(F)ccc45)CC3)cc2o1	> 10000 nM	> 10000 nM	> 10000 nM	
O=C1CC(c2ccccc2)c2ccc(OCCCCN3CCC(c4noc5cc(F)ccc45)CC3)cc2O1 (stereo not drawn)	559 nM	515 nM	> 10000 nM	
Cc1cc(=O)oc2cc(OCCCCCN3CCC(c4noc5cc(F)ccc45)CC3)ccc12	306 nM	123 nM	1720 nM	
COc1cccc(-c2cc(=O)oc3cc(OCCCCN4CCC(c5noc6cc(F)ccc56)CC4)ccc23)c1	> 10000 nM	787 nM	> 10000 nM	
Cc1cc(=O)oc2cc(OCCCN3CCC(c4noc5cc(F)ccc45)CC3)ccc12	140 nM	116 nM	328 nM	
